Measured values: the NIST ThermoML archive (doi:10.1016/j.jct.2019.03.025)
± gives the expanded uncertainty stated by the source.

Conditions: Liquid, Vibrating tube method

Cc1cccc(C)c1 [1,3-dimethylbenzene]
mass density [kg/m3]
Conditions	293.15 K	303.15 K	313.15 K	323.15 K	333.15 K	343.15 K	353.15 K	363.15 K
100 kPa	864.2 ± 0.9	855 ± 0.9	846.7 ± 0.9	837.7 ± 0.9	829 ± 0.9	820 ± 0.9	811.3 ± 0.8	802.2 ± 0.8
1000 kPa	864.4 ± 0.9	855.4 ± 0.9	846.9 ± 0.9	838.6 ± 0.9	829.8 ± 0.9	821.1 ± 0.9	812.2 ± 0.8	803.3 ± 0.8
3000 kPa	865.8 ± 0.9	857.5 ± 0.9	848.6 ± 0.9	840.2 ± 0.9	831.7 ± 0.9	823 ± 0.9	814.3 ± 0.9	805.5 ± 0.8
5000 kPa	866.9 ± 0.9	858.8 ± 0.9	850.1 ± 0.9	841.9 ± 0.9	833.4 ± 0.9	825 ± 0.9	816.2 ± 0.9	807.6 ± 0.8
10000 kPa	870.5 ± 0.9	862.3 ± 0.9	854 ± 0.9	845.9 ± 0.9	837.6 ± 0.9	829.4 ± 0.9	821 ± 0.9	812.4 ± 0.9
15000 kPa	873.8 ± 0.9	865.8 ± 0.9	857.6 ± 0.9	849.8 ± 0.9	841.6 ± 0.9	833.6 ± 0.9	825.7 ± 0.9	817.6 ± 0.9
20000 kPa	877 ± 0.9	869 ± 0.9	861.1 ± 0.9	853.6 ± 0.9	845.6 ± 0.9	837.9 ± 0.9	829.8 ± 0.9	821.8 ± 0.9
25000 kPa	880.2 ± 0.9	872.2 ± 0.9	864.5 ± 0.9	857 ± 0.9	849.3 ± 0.9	841.7 ± 0.9	834 ± 0.9	826 ± 0.9
30000 kPa	883.2 ± 0.9	875.3 ± 0.9	867.7 ± 0.9	860.4 ± 0.9	852.8 ± 0.9	845.5 ± 0.9	838 ± 0.9	830.2 ± 0.9
35000 kPa	886 ± 1	878.2 ± 1	870.9 ± 0.9	863.7 ± 0.9	856.2 ± 0.9	849.2 ± 0.9	841.7 ± 0.9	834.2 ± 0.9
40000 kPa	888.7 ± 1	881 ± 1	873.8 ± 1	866.9 ± 1	859.7 ± 1	852.5 ± 1	845.3 ± 1	838.1 ± 0.9
50000 kPa	894.4 ± 1	886.7 ± 1	879.8 ± 1	873 ± 1	866 ± 1	859.1 ± 1	852.1 ± 1	845.2 ± 1
60000 kPa	899.1 ± 1	892 ± 1	885.1 ± 1	878.8 ± 1	871.9 ± 1	865 ± 1	858.5 ± 1	852 ± 1
